# Results reported in patent US20250295679A1, “Compositions and Dosage Forms for Treatment of HPV Infection and HPV-Induced Neoplasia” (priority 2022, published 2025).
# Where two headings read alike, the source gives them in different places.
# Columns and labels:
# [1] = Solubility in buffers, water and simulated vaginal fluid at 37° C.
# Procedure: About 4 mg of Compound I Pattern 1 was added into 2 mL of buffer solution.
# (§1) Solubility was tested in five media, pH 3.0 citrate buffer, pH 4.5 acetate buffer, pH 6.8 phosphate buffer, water, simulated vaginal fluid (pH 4.2) at 37° C. for 0.5 h and 2 h.
# The salt amount used is equivalent to 10 mg anhydrous free base. […] The obtained clear solutions were analyzed by pH meter for pH, and solubility was determined by observation.
# as §1
# [2] = Hygroscopicity by DVS at 25° C.; format: physicochemical
# Procedure: Hygroscopicity was investigated by DVS at 25° C., using the following method: • Method: 40-0-95-0-40% RH, dm/dt=0.002
# [3] = Bulk (accelerated) stability, one week, HPLC and XRPD; conditions: for HPLC purity, Initial: initial chemical purity before storage
# Procedure: Bulk stability: Accelerated stability experiments were conducted at 25° C./92% RH and 40° C./75% RH in an open container, 60° C. in a tight container for one week.
# Samples were characterized by XRPD and HPLC and inspected for color change.
# Accelerated stability experiments were conducted at 25° C./92% RH in an open container, at 40° C./75% RH in an open container, and at 60° C. in a tight container for one week.
# [4] = Ex vivo permeation and penetration across porcine vaginal tissue (Franz diffusion cell, IVPT); format: in vitro ADME; design: Concentration in vaginal tissue: unit not given here
# Excerpt: FIG. 116 is an in vitro tissue permeation test in vaginal tissue comparing Compound II to ABI-1968. […] Bars B and C show the tissue penetration of a 0.1% Compound II gel in human cervical tissue. […] This may be a contributing factor to the performance of ABI-1968 in clinical studies. […] This is described in Example 41.
# Freshly harvested porcine vaginal tissue was procured from local slaughterhouse in an ice box. The vaginal tissue was cut open to expose the mucosal surface and tissue was cleaned by gentle flow of PBS pH 7.4. The porcine vaginal tissue was cut into circular portions (approximately 2 cm^2) with help of a […] punch.
# The circular portion of tissue was sandwiched between two chambers of a Franz diffusion cell with an active diffusion area of 1 cm^2, and the mucosal layer was exposed to the donor chambers. The resistance across porcine vaginal tissue was measured using a wave form generator to ensure the integrity of the tissue segment used for the permeation study. Porcine vaginal tissue with resistance of ≥3 KΩ·cm^2 was used for study. The receiver chamber was filled with 8 ml of 5% solutol PBS 7.4 pH, which was stirred at 600 rpm with a 3 mm magnetic stir bar and the temperature was maintained at 37° C. with a circulating water bath.
# The ˜200 mg of gel was filled into tared 1 mL syringe and gel was dispensed to donor chamber. The gel was spread on to mucosal surface with pre weighed applicator. After loading and spreading of the gel onto surface of mucosal surface, the weight of 1 mL syringe and applicator was noted to determine the exact amount of gel loaded into donor chamber.
# Time course (2 h, 4 h and 8 h) porcine vaginal permeation studies were performed. After loading gel, 500 μL samples were withdrawn from the receiver compartment at different time intervals and each time an equal volume of fresh receiver media was used to replace withdrawn samples. The sample withdrawn at each time interval were stored immediately in −20° C. until analysis. After 2, 4 and 8 h, the formulation was removed from the donor chamber with help of syringe and cleaned with cotton swab. The tissue was removed and washed gently with wash solution (50% methanol in water) 5 times and alternatively cleaning with cotton swab.
# An 8 mm punch of active diffusion area of washed porcine vaginal tissue was removed, weighed and transferred into a tube. This tube was immediately placed into dry ice for ˜15 min. After specified time, tissue was removed and placed in precooled dish. The tissue was minced into smaller pieces on a dish with a precooled surgical blade. The minced tissue was transferred to sample tubes and dish was rinsed with 1 ml of 5% solutol in PBS 7.4 pH and transferred to same tissue sample tube. These tubes were stored in −70° C. until analysis. […]
# [5] = 25° C., 92% RH, open container, one week
smiles,measurement,setting,value
CCOC(=O)C(C)NP(=O)(COCCn1cnc2c(OC)nc(N)nc21)OCc1ccccc1.CCOC(=O)C(C)NP(=O)(COCCn1cnc2c(OC)nc(N)nc21)OCc1ccccc1.O=C(O)C=CC(=O)O (mixture of isomers) [Compound I hemifumarate],Solubility 0.5 hrs,[1],>2000 µg/mL
same,Solubility 2 hrs,[1],>2000 µg/mL
same,Solubility 0.5 hrs,[1]; pH 3,>2000 µg/mL
same,Solubility 2 hrs,[1]; pH 3,>2000 µg/mL
same,Solubility 0.5 hrs,[1]; pH 4.2,>2000 µg/mL
same,Solubility 2 hrs,[1]; pH 4.2,>2000 µg/mL
same,Solubility 0.5 hrs,[1]; pH 4.5,>2000 µg/mL
same,Solubility 2 hrs,[1]; pH 4.5,>2000 µg/mL
same,Solubility 0.5 hrs,[1]; pH 6.8,>2000 µg/mL
same,Solubility 2 hrs,[1]; pH 6.8,>2000 µg/mL
same,pH at 2 hrs,"[1]; solution in simulated vaginal fluid (pH adjusted with 0.2N NaOH), 37° C.",(5.30)
same,Desorption (%) Cycle 1,"[2]; 0% RH, DVS 25° C.",0.13%
same,Desorption (%) Cycle 2,"[2]; 0% RH, DVS 25° C.",0.00%
same,Sorption (%) Cycle 1,"[2]; 0% RH, DVS 25° C.",0.13%
same,Sorption (%) Cycle 2,"[2]; 0% RH, DVS 25° C.",0.00%
same,Desorption (%) Cycle 1,"[2]; 10% RH, DVS 25° C.",0.36%
same,Desorption (%) Cycle 2,"[2]; 10% RH, DVS 25° C.",0.23%
same,Sorption (%) Cycle 1,"[2]; 10% RH, DVS 25° C.",0.34%
same,Sorption (%) Cycle 2,"[2]; 10% RH, DVS 25° C.",0.20%
same,Desorption (%) Cycle 1,"[2]; 20% RH, DVS 25° C.",0.56%
same,Desorption (%) Cycle 2,"[2]; 20% RH, DVS 25° C.",0.44%
same,Sorption (%) Cycle 1,"[2]; 20% RH, DVS 25° C.",0.53%
same,Sorption (%) Cycle 2,"[2]; 20% RH, DVS 25° C.",0.40%
same,Desorption (%) Cycle 1,"[2]; 30% RH, DVS 25° C.",0.79%
same,Desorption (%) Cycle 2,"[2]; 30% RH, DVS 25° C.",0.68%
same,Sorption (%) Cycle 1,"[2]; 30% RH, DVS 25° C.",0.73%
same,Sorption (%) Cycle 2,"[2]; 30% RH, DVS 25° C.",0.61%
same,Desorption (%) Cycle 1,"[2]; 40% RH, DVS 25° C.",1.04%
same,Desorption (%) Cycle 2,"[2]; 40% RH, DVS 25° C.",0.94%
same,Sorption (%) Cycle 1,"[2]; 40% RH, DVS 25° C.",0.96%
same,Sorption (%) Cycle 2,"[2]; 40% RH, DVS 25° C.",0.87%
same,Desorption (%) Cycle 2,"[2]; 50% RH, DVS 25° C.",1.26%
same,Sorption (%) Cycle 1,"[2]; 50% RH, DVS 25° C.",1.22%
same,Desorption (%) Cycle 2,"[2]; 60% RH, DVS 25° C.",1.68%
same,Sorption (%) Cycle 1,"[2]; 60% RH, DVS 25° C.",1.57%
same,Desorption (%) Cycle 2,"[2]; 70% RH, DVS 25° C.",2.25%
same,Sorption (%) Cycle 1,"[2]; 70% RH, DVS 25° C.",2.04%
same,Desorption (%) Cycle 2,"[2]; 80% RH, DVS 25° C.",3.14%
same,Sorption (%) Cycle 1,"[2]; 80% RH, DVS 25° C.",2.80%
same,Desorption (%) Cycle 2,"[2]; 90% RH, DVS 25° C.",4.84%
same,Sorption (%) Cycle 1,"[2]; 90% RH, DVS 25° C.",4.54%
same,Desorption (%) Cycle 2,"[2]; 95% RH, DVS 25° C.",6.87%
same,Sorption (%) Cycle 1,"[2]; 95% RH, DVS 25° C.",6.87%
same,XRPD after DVS test,"[2]; after humidity cycle 40-0-95-0-40% RH, 25° C.","No form change,"
same,Water uptake,"[2]; up to / in 95% RH, DVS 25° C.",~6.9%
same,HPLC purity after storage,[3]; [5],97.0%
same,XRPD after storage,[3]; [5],No change
same,HPLC purity after storage,"[3]; 40° C., 75% RH, open container, one week",90.9%
same,HPLC purity after storage,"[3]; 60° C., tight container, one week",82.3%
same,"HPLC purity, Initial",[3]; listed as Compound I Hemifumarate Pattern 1,97.8%
same,"HPLC purity, Initial",[3]; listed as Compound I hemifumarate Pattern 1,97.8%
CCCCCCCCCCCCCCCCCCOCCOP(=O)(COCCn1cnc2c(=O)[nH]c(N)nc21)OCc1ccccc1 (stereo not drawn) [ABI-1968],Concentration in vaginal tissue,"[4]; 3% dose, FIG. 116",< 15
same,Tissue penetration,"[4]; porcine vaginal tissue, FIG. 116, 0.1% Compound II gel, 1% and 3% ABI-1968 formulations",substantially smaller degree
same,Tissue concentration,"[4]; up to a 3% dose, Bar F and G in FIG. 116",< 15 ng/mg
